Reference: US11103523B2, “Self-assembled brush block copolymer-nanoparticles for drug delivery” (UNIVERSITY OF CONNECTICUT, priority 2013, dated 2021)

Key:
[1] = test system: A549 cells; test: Antitumor activity and systemic toxicity in SCID mice bearing subcutaneous A549 tumors; assay type: in vivo
Experimental: The antitumor efficacy of DOX and DOX-NPs was evaluated in SCID mice inoculated subcutaneously in the right flank with 0.1 mL PBS containing 2×10^6 A549 cells. When the tumors grew to approximately 20-30 mm^3 (9 days after tumor implantation), the mice were randomly divided into three groups (n=5-6), and this day was designated as day 0. The mice were injected intravenously twice a week via tail vein with saline (control), free DOX and DOX-NPs (100 μL) at 2.5 mg/kg of equivalent DOX. Antitumor activity was evaluated in terms of tumor volume which was calculated using the following equation: Tumor volume (mm^3)=width^2×length/2. The body weight was measured simultaneously as an indicator of the systemic toxicity.

[2] = Tissue distribution of DOX in A549 tumor-bearing SCID mice; assay type: in vivo; conditions: 24 h after i.v. 2.5 mg/kg equivalent DOX
Experimental: For the tissue distribution study, tumor-bearing severe combined immunodeficient (SCID) between 6 and 8 weeks-old mice were inoculated with 0.1 mL PBS containing 2×10^6 human lung cancer cells (A549) into the right flank. […] Twenty four hours after injection, mice were sacrificed for blood and organ collection including tumor, liver, spleen, kidney, lung, and heart. Tissues were then weighed and homogenized in the lysis buffer (0.1 M Tris-HCl, 2 mM EDTA, 0.1% Triton X-100) using a probe sonicator (Qsonica LLC, CT). The lysate of each tissue was centrifuged at 14,000 rpm for 20 min at 4° C. The blood was centrifuged at 3000 rpm for 10 min at 4° C.

[3] = test system: HeLa cells; test: Cytotoxicity in HeLa cells, MTT; conditions: all DOX concentrations (1-50 μg/mL), 24 h
Experimental: HeLa cells (7500 cells/well) were seeded on 96-well plates and cultured in 200 μL of DMEM supplemented with 10% FBS, 1% antibiotics, and 1% L-glutamine for 24 h at 37° C. and 5% CO2. After incubation, various concentrations of the blank nanoparticles (0.2-1 mg/mL), DOX-NPs, and free DOX (1-50 μg/mL of DOX equivalents) dissolved in DMEM without supplements were added. After 24 h of incubation with free DOX and DOX-NPs, and 48 h with blank nanoparticles, cytotoxicity was determined using 3-[4,5-dimethylthiazol-2-yl]-3,5-diphenyltetrazolium bromide dye (MTT dye, final concentration of 0.5 mg/mL) uptake at 540 nm on a microplate reader (Tecan group Ltd., Mannedorf, Switzerland).

[4] = test system: HeLa cells; test: Intracellular uptake in HeLa cells (confocal microscopy and flow cytometry); assay type: cell-based, human; conditions: 25 μg/mL DOX equivalents
Experimental: To observe the cellular uptake, HeLa cells were seeded at a density of 1.0×10^5 cells/well in an 8-well chamber of a Lab-Tek II chamber slide and pre-incubated for 24 h at 37° C. and 5% CO2. Serum-free DMEM containing free DOX and DOX-NPs at equivalent doses (25 μg/mL) was added to each well, followed by incubation for 2 h at 37° C. The cells were then rinsed with PBS, stained with 10 μM Draq5 and fixed with 4% formaldehyde solution for 10 min. Cover glasses were then placed on glass slides. The cellular uptake of free DOX and DOX-NPs was imaged by confocal laser scanning microscopy (Leica, England) at an excitation wavelength of 488 nm for DOX and 633 nm for Draq5.
To quantify cellular uptake, HeLa cells (5×10^5 cells/well) in 0.5 mL were grown on a 24-well plate at 37° C. in a humidified atmosphere of 5% CO2 for 24 h. Serum-free DMEM containing free DOX and DOX-NPs at equivalent doses (25 μg/mL) was added to the cells which were subsequently incubated for 2 h. The cells were then washed three times with PBS, harvested by trypsinization and transferred into Fluorescence Activated Cell Sorter (FACS) tubes. All samples were analyzed by flow cytometry (FACSCalibur, BD Biosciences, San Jose, Calif.) to determine cellular internalization. Fluorescence measurements of intracellular DOX were performed in the FL2 channel.

[5] = 2.5 mg/kg equivalent DOX, tumor-bearing SCID mice

For `COc1cccc2c1C(=O)c1c(O)c3c(c(O)c1C2=O)C[C@@](O)(C(=O)CO)C[C@@H]3O[C@H]1C[C@H](N)[C@H](O)[C@H](C)O1` [free DOX, doxorubicin], the “effect on tumor growth” value ([1]; 2.5 mg/kg equivalent DOX i.v. twice a week) was “tumor growth was inhibited”, the “decrease in body weight” value [1, 5] was 28.1±1.2% and the survival [1, 5] was “death of all mice within 11 days”. For the same compound, the “tissue with greatest / lowest concentration of DOX” value [2] was “greatest in the liver and lowest in the tumor”, the cytotoxicity comparison [3] was “significantly higher cytotoxicity than DOX-NPs” and the “mean fluorescence intensity (flow cytometry)” value ([4]; 2 h) was “greater fluorescence intensity than those treated with DOX-NPs”. The “intracellular distribution of DOX fluorescence (CLSM)” value ([4]; 2 h of incubation) was “strong red color in the nuclei”.
